# Data: US20110178064A1, “SPIRO CONDENSED […] DERIVATIVES FOR USE AS ANTIBACTERIAL” (A[…]&D, priority 2007, published 2011)
# Target: Escherichia coli DNA gyrase A/B tetramer (Escherichia coli, UniProt P0AES4+P0AES6)
# Test: DNA gyrase supercoiling activity fluorescence polarisation assay
# Format: biochemical
# Experimental: The supercoiling reactions may be quenched by the addition of 10 microliters/well of 40 nM oligodeoxynucleotide probe in 3× triplex-forming buffer consisting of 150 mM NaCl, and 150 mM sodium acetate at pH 3.5. The oligodeoxynucleotide probe may be 5′-BODIPY-FL-labeled […]. After 60 minutes, the fluorescence anisotropy of the BODIPY-FL may be measured in a Tecan Ultra plate reader, using 485 nm excitation and 535 nm emission filters equipped with polarizers. The IC50 may be determined by nonliner regression using two control reactions. The first contains no test compound but 0.8% DMSO (100% activity) while the second control reaction contains 5 uM Ciprofloxacin and 0.8% DMSO (0% activity).
# Sequence of Escherichia coli DNA gyrase A/B tetramer (P0AES4 whole entry, one chain of several): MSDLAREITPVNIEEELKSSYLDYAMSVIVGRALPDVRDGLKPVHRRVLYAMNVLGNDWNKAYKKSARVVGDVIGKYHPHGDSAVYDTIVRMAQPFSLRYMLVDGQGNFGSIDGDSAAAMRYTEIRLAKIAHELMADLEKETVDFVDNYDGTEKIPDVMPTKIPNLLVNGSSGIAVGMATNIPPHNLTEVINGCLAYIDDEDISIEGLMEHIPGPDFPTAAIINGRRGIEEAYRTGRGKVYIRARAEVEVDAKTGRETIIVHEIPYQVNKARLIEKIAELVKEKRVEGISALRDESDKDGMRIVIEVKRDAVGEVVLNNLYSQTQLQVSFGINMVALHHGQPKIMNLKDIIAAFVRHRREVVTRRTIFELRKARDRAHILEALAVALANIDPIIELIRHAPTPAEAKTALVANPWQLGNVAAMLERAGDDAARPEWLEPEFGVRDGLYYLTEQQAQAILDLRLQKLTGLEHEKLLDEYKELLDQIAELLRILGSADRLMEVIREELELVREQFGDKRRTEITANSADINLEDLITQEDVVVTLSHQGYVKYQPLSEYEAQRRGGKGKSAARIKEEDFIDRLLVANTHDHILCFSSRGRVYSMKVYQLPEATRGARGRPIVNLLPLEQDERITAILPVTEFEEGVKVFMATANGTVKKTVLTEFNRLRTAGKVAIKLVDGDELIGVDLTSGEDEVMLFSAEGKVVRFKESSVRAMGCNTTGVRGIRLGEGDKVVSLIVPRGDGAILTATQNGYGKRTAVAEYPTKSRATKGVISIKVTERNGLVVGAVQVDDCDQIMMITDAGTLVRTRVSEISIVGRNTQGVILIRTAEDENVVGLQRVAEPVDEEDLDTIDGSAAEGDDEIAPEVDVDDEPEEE
row,SMILES,IC50
1,"C[C@@H]1CN2c3nc(F)c(C#Cc4cnccn4)cc3CC3(C(=O)NC(=O)NC3=O)[C@H]2[C@H](C)O1 (racemic) [Example 22, (6aS,7S,9R)-rel-2-Fluoro-7,9-dimethyl-3-(pyrazin-2-ylethynyl)-6a,7,9,10-tetrahydro-1′H,5H-spiro[[4]oxazino[4,3-a][1,8]naphthyridine-6,5′-pyrimidine]-2′,4′,6′(3′H)-trione]",4 µM
2,"C[C@@H]1CN2c3ncc(-c4nccn4C)cc3CC3(C(=O)NC(=O)NC3=O)[C@H]2[C@H](C)O1 (racemic) [Example 32, (6aS,7S,9R)-rel-7,9-Dimethyl-3-(1-methyl-1H-imidazol-2-yl)-6a., 7,9,10-tetrahydro-2′H,5H-spiro[1,4-oxazino[4,3-a][1,8]naphthyridine-6,5′-pyrimidine]-2′,4′,6′(1′H,3′H)-trione]",24 µM
3,"Cc1cscc1-c1cnc2c(c1)CC1(C(=O)NC(=O)NC1=O)[C@H]1[C@H](C)O[C@H](C)CN21 (racemic) [Example 34, (6aS,7S,9R)-rel-7,9-Dimethyl-3-(4-methylthiophen-3-yl)-6a,7,9,10-tetrahydro-2′H,5H-spiro[1,4-oxazino[4,3-a][1,8]naphthyridine-6,5′-pyrimidine]-2′,4′,6′(1′H,3′H-trione]",15 µM
4,"C[C@@H]1CN2c3cnc(-c4cc5ccccc5o4)cc3CC3(C(=O)NC(=O)NC3=O)[C@H]2[C@H](C)O1 (racemic) [Example 53, (6aS,7S,9R)-rel-3-(1-Benzofuran-2-yl)-7,9-dimethyl-6a,7,9,10-tetrahydro-2′H,5H-spiro[1,4-oxazino[4,3-a][1,7]napthyridine-6,5′-pyrimidine]2′,4′,6′(1′H,3′H)-trione]",16 µM
5,"C[C@@H]1CN2c3cnc(-c4ccco4)cc3CC3(C(=O)NC(=O)NC3=O)[C@H]2[C@H](C)O1 (racemic) [Example 54, (6aS,7S,9R)-rel-3-(Furan-2-yl)-7,9-dimethyl-6a,7,9,10-tetrahydro-2′H,5H-spiro[1,4-oxazino[4,3-a][1,7]naphthyridine-6,5′-pyrimidine]-2′,4′,6′(1′H3″H)-trione]",> 83 µM
6,"COc1ccncc1-c1cc2c(cn1)N1C[C@@H](C)O[C@@H](C)[C@@H]1C1(C2)C(=O)NC(=O)NC1=O (racemic) [Example 58, (6aS,7S,9R)-rel-3-(4-Methoxypyridin-3-yl)-7,9-dimethyl-6a,7,9,10-tetrahydro-2′H,5H-spiro[1,4-oxazino[4,3-a][1,7]naphthyridine-6,5′-pyrimidine]-2′,4′,6′(1″H3″H)-trione]",> 83 µM
7,"C[C@@H]1CN2c3cnc(-c4cccnc4)cc3CC3(C(=O)NC(=O)NC3=O)[C@H]2[C@H](C)O1 (racemic) [Example 61, (6aS,7S,9R)-rel-7,9-Dimethyl-3-pyridin-3-yl)-6a,7,9,10-tetrahydro-2′H,5H-spiro[1,4-oxazino[4,3-a][1,7]naphthyridine-6,5′-pyrimidine]-2′,4′,6′(1′H,3′H)-trione]",18 µM
8,"C[C@@H]1CN2c3ccc(-c4ccccn4)nc3CC3(C(=O)NC(=O)NC3=O)[C@H]2[C@H](C)O1 (racemic) [Example 69, (2R,4S,4aS)-rel-2,4-Dimethyl-8-(pyridin-2-yl)-1,2,4,4a-tetrahydro-2′H,6H-spiro[1,4-oxazino[4,3-a][1,5]naphthyridine-5,5′-pyrimidine]-2′,4′,6′(1′H3″H)-trione]",29 µM
9,"C[C@@H]1CN2c3cnc(-c4nccs4)cc3CC3(C(=O)NC(=O)NC3=O)[C@H]2[C@H](C)O1 (racemic) [Example 86, (6aS,7S,9R)-rel-7,9-Dimethyl-3-(1,3-thiazol-2-yl)-6a., 7,9,10-tetrahydro-2′H,5H-spiro[1,4-oxazino[4,3-a][1,7]naphthyridine-6,5′-pyrimidine]-2′,4′,6′(1′H,3′H)-trione]",61 µM
10,"COc1nc2c(cc1-c1nnc(C)s1)CC1(C(=O)NC(=O)NC1=O)[C@H]1[C@H](C)O[C@H](C)CN21 (racemic) [Example 119, (6aS,7S,9R)-rel-2-Methoxy-7,9-dimethyl-3-(5-methyl-1,3,4-thiadiazol-2-yl)-6a,7,9,10-tetrahydro-1′H,5H-spiro[[1,4]oxazino[4,3-a][1,8]naphthyridine-6,5′-pyrimidine]-2′., 4′,6′(3′H)-trione]",21 µM
11,"C[C@@H]1CN2c3ncc(-c4nncs4)cc3CC3(C(=O)NC(=O)NC3=O)[C@H]2[C@H](C)O1 (relative stereo) [Example 1, (6aS,7S,9R)-rel-7,9-Dimethyl-3-(1,3,4-thiadiazol-2-yl)-6a,7,9,10-tetrahydro-2′H,5H-spiro[1,4-oxazino[4,3-a][1,8]naphthyridine-6,5′-pyrimidine]-2′,4′,6′(1′H,3′H)-trione]",7 µM
12,"C[C@@H]1CN2c3cnc(Br)cc3CC3(C(=O)NC(=O)NC3=O)[C@H]2[C@H](C)O1 (relative stereo) [Example 3, (6aS,7S,9R)-rel-3-Bromo-7,9-dimethyl-6a,7,9,10-tetrahydro-1′H,5H-spiro[[1,4]oxazino[4,3-a][1,7]naphthyridine-6,5′-pyrimidine]-2′,4′,6′(3′H)-trione]",11 µM
13,"C[C@@H]1CN2c3cncc(F)c3CC3(C(=O)NC(=O)NC3=O)[C@H]2[C@H](C)O1 (relative stereo) [Example 6, (6aS,7S,9R)-rel-4-Fluoro-7,9-dimethyl-6a,7,9,10-tetrahydro-1′H,5H-spiro[[1,4]oxazino[4,3-a][1,7]naphthyridine-6,5′-pyrimidine]-2′,4′,6′(3′H)-trione]",> 83 µM
14,"C[C@@H]1CN2c3ncc(Br)cc3CC3(C(=O)NC(=O)NC3=O)[C@H]2[C@H](C)O1 (relative stereo) [Example 9, (6aS,7S,9R)-rel-3-Bromo-7,9-dimethyl-6a,7,9,10-tetrahydro-1′H,5H-spiro[[1,4]oxazino[4,3-a][1,8]naphthyridine-6,5′-pyrimidine]-2′,4′,6′(3′H)-trione]",3 µM
15,"C[C@@H]1CN2c3c(ccnc3Cl)CC3(C(=O)NC(=O)NC3=O)[C@H]2[C@H](C)O1 (relative stereo) [Example 12, (6aS,7S,9R)-rel-1-chloro-7,9-dimethyl-6a,7,9,10-tetrahydro-1′H,5H-spiro[[1,4]oxazino[4,3-a][1,7]naphthyridine-6,5′-pyrimidine]-2′,4′,6′(3′H)-trione]",21 µM
16,"C[C@@H]1CN2c3nc(F)c(I)cc3CC3(C(=O)NC(=O)NC3=O)[C@H]2C(=O)N1 (relative stereo) [Example 14, (6aS,9R)-rel-2-Fluoro-3-iodo-9-methyl-9,10-dihydro-1′H-spiro[pyrazino[1,2-a][1,8]naphthyridine-6,5′-pyrimidine]-2′,4′,6′,7(3′H,5H,6aH,8H)-tetraone]",11 µM
17,"Cc1nnc(-c2cc3c(nc2F)N2C[C@@H](C)O[C@@H](C)[C@@H]2C2(C3)C(=O)NC(=O)NC2=O)s1 (relative stereo) [Example 16, (6aS,7S,9R)-rel-2-Fluoro-7,9-dimethyl-3-(5-methyl-1,3,4-thiadiazol-2-yl)-6a,7,9,10-tetrahydro-1′H,5H-spiro[[1,4]oxazino[4,3-a][1,8]naphthyridine-6,5′-pyrimidine]-2′,4′,6′(3′H)-trione]",7 µM
18,"C[C@@H]1CN2c3nc(F)ccc3CC3(C(=O)NC(=O)NC3=O)[C@H]2[C@H](C)O1 (relative stereo) [Example 20, (6aS,7S,9R)-rel-2-Fluoro-7,9-dimethyl-6a,7,9,10-tetrahydro-1′H,5H-spiro[[1,4]oxazino[4,3-a][1,8]naphthyridine-6,5′-pyrimidine]-2′,4′,6′(3′H)-trione]",25 µM
19,"C[C@@H]1CN2c3nc(F)c(C#Cc4ccccn4)cc3CC3(C(=O)NC(=O)NC3=O)[C@H]2[C@H](C)O1 (relative stereo) [Example 21, (6aS,7S,9R)-rel-2-fluoro-7,9-dimethyl-3-(pyridin-2-ylethynyl)-6a,7,9,10-tetrahydro-1′H,5H-spiro[[1,4]oxazino[4,3-a][1,8]naphthyridine-6,5′-pyrimidine]-2′,4′,6′(3′H)-trione]",10 µM
20,"COc1ccc(C#Cc2cc3c(nc2F)N2C[C@@H](C)O[C@@H](C)[C@@H]2C2(C3)C(=O)NC(=O)NC2=O)cc1 (relative stereo) [Example 23, (6aS,7S,9R)-rel-2-Fluoro-3-((4-methoxyphenyl)ethynyl)-7,9-dimethyl-6a,7,9,10-tetrahydro-1′H,5H-spiro[[1,4]oxazino[4,3-a][1,8]naphthyridine-6,5′-pyrimidine]-2′,4′,6′(3′H)-trione]",6 µM
21,"Cc1nnc(-c2cnc3c(c2)CC2(C(=O)NC(=O)NC2=O)[C@H]2[C@H](C)O[C@H](C)CN32)s1 (relative stereo) [Example 24, (6aS,7S,9R)-rel-7,9-Dimethyl-3-(5-methyl-1,3,4-thiadiazol-2-yl)-6a,7,9,10-tetrahydro-2′H,5H-spiro[1,4-oxazino[4,3-a][1,8]naphthyridine-6,5′-pyrimidine]-2′,4′,6′(1′H,3′H)-trione]",> 5 µM
22,"C[C@@H]1CN2c3ncc(-c4cncs4)cc3CC3(C(=O)NC(=O)NC3=O)[C@H]2[C@H](C)O1 (relative stereo) [Example 26, (6aS,7S,9R)-rel-7,9-Dimethyl-3-(1,3-thiazol-5-yl)-6a,7,9,10-tetrahydro-2′H,5H-spiro[1,4-oxazino[4,3-a][1,8]naphthyridine-6,5′-pyrimidine]-2′,4′,6′(1′H,3′H)-trione]",4 µM
23,"C[C@@H]1CN2c3ncc(-c4cc5ccccc5s4)cc3CC3(C(=O)NC(=O)NC3=O)[C@H]2[C@H](C)O1 (relative stereo) [Example 28, (6aS,7S,9R)-rel-3-(1-Benzothiophen-2-yl)-7,9-dimethyl-6a,7,9,10-tetrahydro-2′H,5H-spiro[1,4-oxazino[4,3-a][1,8]naphthyridine-6,5′-pyrimidine]-2′,4′,6′(1′H,3′H)-trione]",2 µM
